Here are results for 17 compounds from patent US10219516B2, “Molecules having pesticidal utility, and intermediates, compositions, and processes, related thereto” (priority 2015, dated 2019).

Holding throughout (type): in vivo
Assay [1] concerns Green Peach Aphid (Myzus persicae, MYZUPE). The assay is described as follows: Bioassay on Green Peach Aphid (GPA), foliar spray on infested cabbage seedlings. The following applies: foliar, 72 h, Species GPA (Green Peach Aphid), read-out: GPA (Biological Results, rating). The method in brief:
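Cabbage seedlings (2-3 true leaves) infested with 20-50 wingless adult and nymph aphids one day before treatment; sprayed to runoff at 200 ppm in 0.025% Tween 20 water with 20% acetone/methanol, four pots per treatment. Held three days at about 25° C; live aphids counted, % control by Abbott's correction versus solvent check.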

Assay [2] deals with Beet Armyworm (Spodoptera exigua, LAPHEG). Nature of the assay: Bioassay on Beet Armyworm (BAW), 128-well diet tray assay. To be noted: Species BAW (Beet Armyworm), read-out: BAW (Biological Results, rating). The method in brief: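 Diet tray, 8 wells/compound; 50 μg/cm^2 applied to diet surface (90:10 acetone-water), dried. 1–5 L2 larvae/well; 25° C., 14:10 L:D, 5–7 d. Read-out: % mortality, mean of 8 wells.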

Assay [3] relates to Yellow Fever Mosquito (Aedes aegypti, AEDSAE). The assay is described as follows: Bioassay on Yellow Fever Mosquito (YFM), 96-well plate larval assay. The following applies: Species YFM (Yellow Fever Mosquito). The method in brief: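 Compound stocks at 4000 ppm in DMSO were diluted with 90:10 water/acetone, and 15 μL aliquots were dispensed into six replicate plates. About 1-day-old larvae in liver-powder water were added per well. Plates were covered and held at room temperature for 3 days before each well was scored for mortality.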

The test system of assay [4] is Cabbage Looper (Trichoplusia ni, TRIPNI). The assay is described as follows: Bioassay on Cabbage Looper (CL), 128-well diet tray assay. To be noted: Trichoplusia ni; Species CL (Cabbage Looper); read-out: CL (Biological Results, rating). The method in brief:
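Using eight wells per molecule, artificial diet was dosed at 50 μg/cm^2 with compound in 90:10 acetone-water and dried before one to five second-instar larvae were added per well. Covered vented trays were kept at 25° C. with 14:10 light-dark for five to seven days, then per-well percent mortality was recorded and averaged.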

On to `O=C(Nc1c(F)cc(F)cc1F)c1cc(NC(=O)[C@H]2[C@H](c3cc(Cl)cc(Cl)c3)C2(Cl)Cl)ccc1Cl` (relative stereo) [F24, trans-2-Chloro-5-(2,2-dichloro-3-(3,5-dichlorophenyl)cyclopropane-1-carboxamido)-N-(2,4,6-trifluorophenyl)benzamide], for which the pest or weed control at 200 µg/mL in assay [1] was 80 to 100%. In addition, the pest or weed control at 50 µg/cm2 in assay [2] and in assay [4] was 50 to 100% throughout. The “YFM (Biological Results, rating)” value in assay [3] is “A (80-100)”.

Take `O=C(Nc1c(F)cccc1F)c1cc(NC(=O)[C@H]2[C@H](c3cc(Cl)cc(Cl)c3)C2(Cl)Cl)ccc1Cl` (relative stereo) [F25, trans-2-Chloro-5-(2,2-dichloro-3-(3,5-dichlorophenyl)cyclopropane-1-carboxamido)-N-(2,6-difluorophenyl)benzamide]: the pest or weed control at 200 µg/mL in assay [1] was 80 to 100%. The pest or weed control at 50 µg/cm2 in assay [2] and in assay [4] was 50 to 100% in each case. Further, the “YFM (Biological Results, rating)” value in assay [3] is “A (80-100)”.

With `O=C(Nc1ccncc1)c1cc(NC(=O)[C@H]2[C@H](c3cc(Cl)cc(Cl)c3)C2(Cl)Cl)ccc1Cl` (relative stereo) [F26, trans-2-Chloro-5-(2,2-dichloro-3-(3,5-dichlorophenyl)cyclopropane-1-carboxamido)-N-(pyridin-4-yl)benzamide], the pest or weed control at 200 µg/mL in assay [1] lay in the range of 0 to 80%. For the same compound, the pest or weed control at 50 µg/cm2 in assay [2] and in assay [4] was 50 to 100% throughout. In addition, the “YFM (Biological Results, rating)” value in assay [3] is reported as “A (80-100)”.

As for `O=C(Nc1cccnc1)c1cc(NC(=O)[C@H]2[C@H](c3cc(Cl)cc(Cl)c3)C2(Cl)Cl)ccc1Cl` (relative stereo) [F27, trans-2-Chloro-5-(2,2-dichloro-3-(3,5-dichlorophenyl)cyclopropane-1-carboxamido)-N-(pyridin-3-yl)benzamide], the pest or weed control at 200 µg/mL in assay [1] lay within 0 to 80%. Further, the pest or weed control at 50 µg/cm2 in assay [2] and in assay [4] was 50 to 100% throughout. In addition, in assay [3], the “YFM (Biological Results, rating)” value is listed as “A (80-100)”.

Regarding `O=C(Nc1ccc(F)cc1)c1cc(NC(=O)[C@H]2[C@H](c3ccc(Cl)c(Cl)c3)C2(Cl)Cl)ccc1F` (relative stereo) [F28, trans-5-(2,2-Dichloro-3-(3,4-dichlorophenyl)cyclopropane-1-carboxamido)-2-fluoro-N-(4-fluorophenyl)benzamide], in assay [1], the pest or weed control at 200 µg/mL was in the range of 80 to 100%. Also, the pest or weed control at 50 µg/cm2 in assay [2] and in assay [4] was 50 to 100% each time. The “YFM (Biological Results, rating)” value in assay [3] is “A (80-100)”.

In the case of `O=C(Nc1ccc(F)cc1)c1cc(NC(=O)[C@H]2[C@H](c3cc(Cl)c(Cl)c(Cl)c3)C2(Cl)Cl)ccc1F` (relative stereo) [F29, trans-5-(2,2-Dichloro-3-(3,4,5-trichlorophenyl)cyclopropane-1-carboxamido)-2-fluoro-N-(4-fluorophenyl)benzamide], in assay [1], the pest or weed control at 200 µg/mL fell in the range of 0 to 80%. In addition, the pest or weed control at 50 µg/cm2 in assay [2] and in assay [4] was 50 to 100% in each case. Besides, in assay [3], the “YFM (Biological Results, rating)” value is on record as “A (80-100)”.

Regarding `COc1c(NC(=O)[C@H]2[C@H](c3cc(Cl)cc(Cl)c3)C2(Cl)Cl)cccc1C(=O)Nc1ccc(F)cc1` (relative stereo) [F30, trans-3-(2,2-Dichloro-3-(3,5-dichlorophenyl)cyclopropane-1-carboxamido)-N-(4-fluorophenyl)-2-methoxybenzamide], the pest or weed control at 200 µg/mL in assay [1] was in the range of 0 to 80%. Moreover, the pest or weed control at 50 µg/cm2 in assay [2] and in assay [4] was 50 to 100% throughout. In addition, in assay [3], the “YFM (Biological Results, rating)” value is on record as “A (80-100)”.

Consider `O=C(Nc1cccnc1Cl)c1cc(NC(=O)[C@H]2[C@H](c3cc(Cl)cc(Cl)c3)C2(Cl)Cl)ccc1Cl` (relative stereo) [F31, trans-2-Chloro-N-(2-chloropyridin-3-yl)-5-(2,2-dichloro-3-(3,5-dichlorophenyl)cyclopropane-1-carboxamido)benzamide], for which, in assay [1], the pest or weed control at 200 µg/mL lay within 80 to 100%. In addition, the pest or weed control at 50 µg/cm2 in assay [2] and in assay [4] was 50 to 100% throughout. The “YFM (Biological Results, rating)” value in assay [3] is recorded as “A (80-100)”.

As to `N#Cc1ccc(NC(=O)c2cc(NC(=O)[C@H]3[C@H](c4cc(Cl)cc(Cl)c4)C3(Cl)Cl)ccc2Cl)cn1` (relative stereo) [F33, trans-2-Chloro-N-(6-cyanopyridin-3-yl)-5-(2,2-dichloro-3-(3,5-dichlorophenyl)cyclopropane-1-carboxamido)benzamide], the pest or weed control at 200 µg/mL in assay [1] was 0 to 80%. Also, the pest or weed control at 50 µg/cm2 in assay [2] and in assay [4] was 50 to 100% throughout. For the same compound, the “YFM (Biological Results, rating)” value in assay [3] is “A (80-100)”.

As for `CN(C(=O)c1cc(NC(=O)[C@H]2[C@H](c3cc(Cl)cc(Cl)c3)C2(Cl)Cl)ccc1Cl)c1cccc(F)c1` (relative stereo) [F34, trans-2-Chloro-5-(2,2-dichloro-3-(3,5-dichlorophenyl)cyclopropane-1-carboxamido)-N-(3-fluorophenyl)-N-methylbenzamide], in assay [1], the pest or weed control at 200 µg/mL is 0 to 80%. Also, the pest or weed control at 50 µg/cm2 in assay [2] and in assay [4] was 50 to 100% in each case. Further, the “YFM (Biological Results, rating)” value in assay [3] is recorded as “A (80-100)”.

For `CN(C(=O)c1cc(NC(=O)[C@H]2[C@H](c3cc(Cl)cc(Cl)c3)C2(Cl)Cl)ccc1Cl)c1ccccc1F` (relative stereo) [F35, trans-2-Chloro-5-(2,2-dichloro-3-(3,5-dichlorophenyl)cyclopropane-1-carboxamido)-N-(2-fluorophenyl)-N-methylbenzamide], the pest or weed control at 200 µg/mL in assay [1] fell in the range of 80 to 100%. Besides, the pest or weed control at 50 µg/cm2 in assay [2] and in assay [4] was 50 to 100% throughout. Moreover, the “YFM (Biological Results, rating)” value in assay [3] is listed as “A (80-100)”.

With `Cc1cc(C#N)ccc1NC(=O)c1cc(NC(=O)[C@H]2[C@H](c3cc(Cl)cc(Cl)c3)C2(Cl)Cl)ccc1Cl` (relative stereo) [F36, trans-2-Chloro-N-(4-cyano-2-methylphenyl)-5-(2,2-dichloro-3-(3,5-dichlorophenyl)cyclopropane-1-carboxamido)benzamide], the pest or weed control at 200 µg/mL in assay [1] was 0 to 80%. The pest or weed control at 50 µg/cm2 in assay [2] and in assay [4] was 50 to 100% throughout. Moreover, in assay [3], the “YFM (Biological Results, rating)” value is reported as “A (80-100)”.

Regarding `Cc1cc(F)ccc1NC(=O)c1cc(NC(=O)[C@H]2[C@H](c3cc(Cl)cc(Cl)c3)C2(Cl)Cl)ccc1Cl` (relative stereo) [F37, trans-2-Chloro-5-(2,2-dichloro-3-(3,5-dichlorophenyl)cyclopropane-1-carboxamido)-N-(4-fluoro-2-methylphenyl)benzamide], in assay [1], the pest or weed control at 200 µg/mL lay within 80 to 100%. The pest or weed control at 50 µg/cm2 in assay [2] and in assay [4] was 50 to 100% each time. Moreover, the “YFM (Biological Results, rating)” value in assay [3] is recorded as “A (80-100)”.

`O=C(Nc1ccccc1Cl)c1cc(NC(=O)[C@H]2[C@H](c3cc(Cl)cc(Cl)c3)C2(Cl)Cl)ccc1Cl` (relative stereo) [F38, trans-2-Chloro-N-(2-chlorophenyl)-5-(2,2-dichloro-3-(3,5-dichlorophenyl)cyclopropane-1-carboxamido)benzamide]: the pest or weed control at 200 µg/mL in assay [1] lay within 80 to 100%. For the same compound, the pest or weed control at 50 µg/cm2 in assay [2] and in assay [4] was 50 to 100% each time. In assay [3], the “YFM (Biological Results, rating)” value is on record as “A (80-100)”.

Regarding `O=C(Nc1ccc(F)cc1F)c1cc(NC(=O)[C@H]2[C@H](c3ccc(Cl)c(Cl)c3)C2(Cl)Cl)ccc1Cl` (relative stereo) [F39, trans-2-Chloro-5-(2,2-dichloro-3-(3,4-dichlorophenyl)cyclopropane-1-carboxamido)-N-(2,4-difluorophenyl)benzamide], in assay [1], the pest or weed control at 200 µg/mL was in the range of 80 to 100%. Further, the pest or weed control at 50 µg/cm2 in assay [2] and in assay [4] was 50 to 100% throughout. Besides, the “YFM (Biological Results, rating)” value in assay [3] is given as “A (80-100)”.

In the case of `O=C(Nc1ccc(F)cc1F)c1cc(NC(=O)[C@H]2[C@H](c3cc(Cl)c(Cl)c(Cl)c3)C2(Cl)Cl)ccc1Cl` (relative stereo) [F40, trans-2-Chloro-5-(2,2-dichloro-3-(3,4,5-trichlorophenyl)cyclopropane-1-carboxamido)-N-(2,4-difluorophenyl)benzamide], the pest or weed control at 200 µg/mL in assay [1] lay within 80 to 100%. The pest or weed control at 50 µg/cm2 in assay [2] and in assay [4] was 50 to 100% in each case. Further, the “YFM (Biological Results, rating)” value in assay [3] is reported as “B (More than 0-Less than 80)”.

Take `CC(C)c1ccccc1NC(=O)c1cc(NC(=O)[C@H]2[C@H](c3cc(Cl)cc(Cl)c3)C2(Cl)Cl)ccc1Cl` (relative stereo) [F41, trans-2-Chloro-5-(2,2-dichloro-3-(3,5-dichlorophenyl)cyclopropane-1-carboxamido)-N-(2-isopropylphenyl)benzamide]: the pest or weed control at 200 µg/mL in assay [1] fell in the range of 0 to 80%. Besides, the pest or weed control at 50 µg/cm2 in assay [2] and in assay [4] was 50 to 100% each time. Moreover, the “YFM (Biological Results, rating)” value in assay [3] is “A (80-100)”.
